# Reference: patent US10837044B2, “Automated method for analyzing and interpreting an antimicrobial susceptibility” (FONDATION MEDITERRANEE INFECTION, priority 2014, dated 2020)
# How the values were obtained:
# Pseudomonas aeruginosa = assay: antibiogram by diffusion on Mueller-Hinton agar with antibiotic wafers; assay type: cell-based; settings: Table C1, six wafers, disk loads of Table B
# Klebsiella oxytoca = assay: as above; assay type: cell-based; settings: Table C1; K. oxytoca phenotype Wild; six wafers, disk loads of Table B
# Enterobacter aerogenes = assay: as above; assay type: cell-based; settings: Table C1, six wafers, disk loads of Table B
# Enterobacter cloacea = assay: as above; assay type: cell-based; settings: Table C1, six wafers, disk loads of Table B
# Klebsiella pneumoniae = assay: as above; assay type: cell-based; settings: for resistance (I, R) or sensitivity (S): Table C1, six wafers, disk loads of Table B; for resistant (I/R) or sensitive (S): Table C2, sixteen wafers, square dish
# Escherichia coli = assay: as above; assay type: cell-based; settings: for resistance (I, R) or sensitivity (S): Table C1, disk loads of Table B; for resistant (I/R) or sensitive (S): Table C2, square dish
# Proteus mirabilis = assay: as above; assay type: cell-based; settings: Table C1, six wafers, disk loads of Table B
# BSBL bacteria = settings: all of the BSBL bacteria in Table C1
# Description: Synergies are generated with the method on agar by the antibiotics diffusing in the agar as a result of the fact that providing the distance between two antibiotics is small enough (in the range 2 centimeters (cm) to 2.5 cm for Gram negative bacteria) they are capable of diffusing over a common portion of the agar, and as a result it is the association of the two antibiotics in this specific location that makes it possible, where appropriate, to see the appearance of a new inhibition zone, which is the synergy zone.
# In the event of synergy occurring, it is possible to see mechanisms of synergy between two antibiotics since an additional inhibition zone appears generally between the two antibiotics in question. It may be in the form of an enlargement of the diameter around the disk A going towards the disk B if A and B present mutual synergy.
# The BSBL phenotype includes a synergy phenotype between ceftriaxone and clavulanic acid, and thus between CRO and TCC or AMC (for all of the BSBL bacteria in the table).
# [1] = P. aeruginosa Abnormal phenotype
# [2] = P. aeruginosa phenotype Carbapenemase
# [3] = P. aeruginosa phenotype Penicillinase
# [4] = P. aeruginosa phenotype Selective imipenem permeability
# [5] = K. pneumoniae phenotype Carbapenemase
# [6] = K. pneumoniae phenotype Hl cephalosporinase
# [7] = K. pneumoniae phenotype Hl penicillinase
# [8] = K. pneumoniae phenotype Ll penicillinase
# [9] = K. pneumoniae phenotype Cephalosporinase + R to aminosides + R to cotrimoxazole
# [10] = E. coli phenotype BSBL, six wafers
# [11] = E. coli phenotype Carbapenemase, six wafers
# [12] = E. coli phenotype Hl cephalosporinase, six wafers
# [13] = E. coli phenotype Hl penicillinase, six wafers
# [14] = E. coli phenotype Inhibitor resistant penicillinase, six wafers
# [15] = E. coli phenotype Ll penicillinase, six wafers
# [16] = E. coli phenotype Wild, six wafers in a circle
# [17] = E. coli phenotype Cephalosporinase + R to fluoroquinolones + R to cotrimoxazole + partial R to aminosides, sixteen wafers
# [18] = E. coli phenotype Hl penicillinase + R to fluoroquinolones + R to cotrimoxazole + partial R to aminosides, sixteen wafers
# [19] = E. coli phenotype Wild, sixteen wafers in a rectangular grid
# [20] = P. mirabilis phenotype Hl cephalosporinase
# [21] = P. mirabilis phenotype Hl penicillinase
# [22] = P. mirabilis phenotype Inhibitor resistant penicillinase
# [23] = P. mirabilis phenotype Ll penicillinase
# [24] = E. coli strain of BSBL phenotype, champagne-cork shaped inhibition zone
Molecule,"resistance (I, R) or sensitivity (S) (Pseudomonas aeruginosa; [1])","resistance (I, R) or sensitivity (S) (Pseudomonas aeruginosa; P. aeruginosa phenotype BSBL)","resistance (I, R) or sensitivity (S) (Pseudomonas aeruginosa; [2])","resistance (I, R) or sensitivity (S) (Pseudomonas aeruginosa; [3])","resistance (I, R) or sensitivity (S) (Pseudomonas aeruginosa; [4])","resistance (I, R) or sensitivity (S) (Pseudomonas aeruginosa; P. aeruginosa phenotype Wild)","resistance (I, R) or sensitivity (S) (Klebsiella oxytoca)","resistance (I, R) or sensitivity (S) (Enterobacter aerogenes; E. aerogenes phenotype BSBL)","resistance (I, R) or sensitivity (S) (Escherichia coli; [10])","resistance (I, R) or sensitivity (S) (Escherichia coli; [11])","resistance (I, R) or sensitivity (S) (Escherichia coli; [12])","resistance (I, R) or sensitivity (S) (Escherichia coli; [13])","resistance (I, R) or sensitivity (S) (Escherichia coli; [14])","resistance (I, R) or sensitivity (S) (Escherichia coli; [15])","resistance (I, R) or sensitivity (S) (Escherichia coli; [16])","resistance (I, R) or sensitivity (S) (Proteus mirabilis; [20])","resistance (I, R) or sensitivity (S) (Proteus mirabilis; [21])","resistance (I, R) or sensitivity (S) (Proteus mirabilis; [22])","resistance (I, R) or sensitivity (S) (Proteus mirabilis; [23])","resistance (I, R) or sensitivity (S) (Proteus mirabilis; P. mirabilis phenotype Wild)",also measured
"C[C@@H](O)[C@H]1C(=O)N2C(C(=O)O)=C(SCCN=CN)C[C@H]12 [IMP, imipenem]",S,S,R,S,I,S,S,S,S,R,S,S,S,S,S,S,S,S,S,S,"resistance (I, R) or sensitivity (S) (Enterobacter aerogenes; E. aerogenes phenotype Wild): S; resistance (I, R) or sensitivity (S) (Enterobacter cloacea; E. cloacae phenotype BSBL): S; resistance (I, R) or sensitivity (S) (Enterobacter cloacea; E. cloacae phenotype Wild): S; resistance (I, R) or sensitivity (S) (Klebsiella pneumoniae; K. pneumoniae phenotype BSBL): S; resistance (I, R) or sensitivity (S) (Klebsiella pneumoniae; [5]): R; resistance (I, R) or sensitivity (S) (Klebsiella pneumoniae; [6]): S; resistance (I, R) or sensitivity (S) (Klebsiella pneumoniae; [7]): S; resistance (I, R) or sensitivity (S) (Klebsiella pneumoniae; [8]): S; resistance (I, R) or sensitivity (S) (Klebsiella pneumoniae; K. pneumoniae phenotype Wild): S; resistant (I/R) or sensitive (S) (Klebsiella pneumoniae; [9]): S; resistant (I/R) or sensitive (S) (Klebsiella pneumoniae; K. pneumoniae phenotype Wild): S; resistant (I/R) or sensitive (S) (Escherichia coli; [17]): S; resistant (I/R) or sensitive (S) (Escherichia coli; [18]): S; resistant (I/R) or sensitive (S) (Escherichia coli; [19]): S"
amoxicillin-clavulanic acid [AMC],,,,,,,S,R,R,R,R,I/R,R,S,S,R,I,R,S,S,"resistance (I, R) or sensitivity (S) (Enterobacter aerogenes; E. aerogenes phenotype Wild): S; resistance (I, R) or sensitivity (S) (Enterobacter cloacea; E. cloacae phenotype BSBL): R; resistance (I, R) or sensitivity (S) (Enterobacter cloacea; E. cloacae phenotype Wild): S; resistance (I, R) or sensitivity (S) (Klebsiella pneumoniae; K. pneumoniae phenotype BSBL): R; resistance (I, R) or sensitivity (S) (Klebsiella pneumoniae; [5]): R; resistance (I, R) or sensitivity (S) (Klebsiella pneumoniae; [6]): I/R; resistance (I, R) or sensitivity (S) (Klebsiella pneumoniae; [7]): I/R; resistance (I, R) or sensitivity (S) (Klebsiella pneumoniae; [8]): S; resistance (I, R) or sensitivity (S) (Klebsiella pneumoniae; K. pneumoniae phenotype Wild): S; resistant (I/R) or sensitive (S) (Klebsiella pneumoniae; [9]): R; resistant (I/R) or sensitive (S) (Klebsiella pneumoniae; K. pneumoniae phenotype Wild): R; synergy zone between two antibiotic wafers placed side by side (Escherichia coli; [24]): synergy zone; synergy zone between two antibiotic wafers placed side by side (Escherichia coli; E. coli strain of BSBL phenotype, champagne-cork shaped inhibition zone, listed as amoxicillin+clavulanic acid): synergy; resistant (I/R) or sensitive (S) (Escherichia coli; [17]): R; resistant (I/R) or sensitive (S) (Escherichia coli; [18]): I; resistant (I/R) or sensitive (S) (Escherichia coli; [19]): S; synergy phenotype between antibiotics (BSBL bacteria): synergy"
"CO/N=C(\C(=O)N[C@@H]1C(=O)N2C(C(=O)[O-])=C(C[N+]3(C)CCCC3)CS[C@H]12)c1csc(N)n1 [FEP, cefepime]",R,I/R,R,S,S,S,S,R/I,R,R,R,S,S,S,S,R,S,S,S,S,"resistance (I, R) or sensitivity (S) (Enterobacter aerogenes; E. aerogenes phenotype Wild): S; resistance (I, R) or sensitivity (S) (Enterobacter cloacea; E. cloacae phenotype BSBL): R; resistance (I, R) or sensitivity (S) (Enterobacter cloacea; E. cloacae phenotype Wild): S; resistance (I, R) or sensitivity (S) (Klebsiella pneumoniae; K. pneumoniae phenotype BSBL): R; resistance (I, R) or sensitivity (S) (Klebsiella pneumoniae; [5]): R; resistance (I, R) or sensitivity (S) (Klebsiella pneumoniae; [6]): S; resistance (I, R) or sensitivity (S) (Klebsiella pneumoniae; [7]): S; resistance (I, R) or sensitivity (S) (Klebsiella pneumoniae; [8]): S; resistance (I, R) or sensitivity (S) (Klebsiella pneumoniae; K. pneumoniae phenotype Wild): S"
ticarcillin-clavulanic acid [TCC],R,I/R,R,I/R,S,S,,,R,R,R,I/R,R,S,S,R,I,R,S,S,"resistant (I/R) or sensitive (S) (Klebsiella pneumoniae; [9]): R; resistant (I/R) or sensitive (S) (Klebsiella pneumoniae; K. pneumoniae phenotype Wild): R; synergy zone between two antibiotic wafers placed side by side (Escherichia coli; E. coli cephalosporinase phenotype (FIGS. 2D, 2E)): absence of a zone of synergy; synergy zone between two antibiotic wafers placed side by side (Escherichia coli; [24]): presence of a zone of synergy; resistant (I/R) or sensitive (S) (Escherichia coli; [17]): R; resistant (I/R) or sensitive (S) (Escherichia coli; [18]): I; resistant (I/R) or sensitive (S) (Escherichia coli; [19]): S; synergy phenotype between antibiotics (BSBL bacteria): synergy"
